Assay [1] concerns release of IL-5 upon T cell activation. As to the kind of experiment: Fluorospot assay, IL-5 release (DK1-TCL01, US1-TCL01). It counts as cell-based, human. The conditions noted are these: head prints TCL-02 DK1; text: 25 TCL-01 DK1 lines. The procedure, abridged:
(§1)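 Grass-allergic donors' CD8-depleted PBMCs were expanded 14 days with natural grass allergens plus IL-2 to give TCL01 lines. These were incubated 20 h at 37° C with single peptides or peptide mixes at 2 μg/ml, and spot-forming cells were counted. Hit: SI≥2, p≤0.05, Poisson ≤0.05, ≥20 SFC/10^6 cells.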

Assay [2] concerns release of IFN-γ upon T cell activation. Put plainly: Fluorospot assay, IFN-γ release (DK1-TCL01, US1-TCL01). Format: cell-based, human. The conditions noted are these: head prints TCL-02 DK1; 17 TCL-01 DK1 lines. In short, it runs like this:
as §1

Where no end group is shown, it is not given here.

As to VATLSEALRIIAGTLEVHAV-OH [compound 67], in assay [1], the “IL-5-Fluorospotr % donor coverage (TCL-02 DK1)” value is listed as 32.00%. For the same substance, the “IFN-gamma % donor coverage (TCL-02 DK1)” value in assay [2] was 4.00%.
In the case of STGGAYESYKFIPALEAAVK-OH [compound 71], the “IL-5-Fluorospotr % donor coverage (TCL-02 DK1)” value in assay [1] was found to be 32.00%. Also, the “IFN-gamma % donor coverage (TCL-02 DK1)” value in assay [2] is given as 0.00%.
PANDKFTVFEAAFNNAIKAS-OH [compound 70]: in assay [1], the “IL-5-Fluorospotr % donor coverage (TCL-02 DK1)” value was found to be 16.00%. Also, the “IFN-gamma % donor coverage (TCL-02 DK1)” value in assay [2] is listed as 0.00%.

Values taken from US20180207228A1, “PEPTIDE COMBINATIONS AND USES THEREOF FOR TREATING GRASS ALLERGY” (ALK-Abelló A/S, priority 2015, published 2018).
